Where a name gives a salt, the structure may show the parent alone.
Columns and labels:
[1] = system: MCPP-induced Hypolocomotion; test: Reversal of MCPP-induced hypolocomotion; assay type: in vivo; conditions: po, procedure of WO 94/04533, read-out: ID50 (the source's name)
Excerpt: Reversal of MCPP-induced Hypolocomotion

Compound	ED50 [1] [mg/kg]	melting point [°C]
COc1cc2c(cc1C(F)(F)F)N(C(=O)Nc1cccc(-c3cccnc3)c1)CC2 [Example 1]	0.5 to 5.5	–
CSc1cc2c(cc1C(F)(F)F)N(C(=O)Nc1cccc(-c3cccnc3)c1)CC2 [Example 3, 1-[(3-Pyridyl)-3-phenyl Carbamoyl]-5-methylthio-6-trifluoromethyl Indoline]	0.5 to 5.5	208 to 210
COc1cc2c(cc1C(F)(F)F)N(C(=O)Nc1ccc(C)c(-c3cccnc3)c1)CC2 [Example 7, 1-[4-Methyl-3-(3-Pyridyl)phenylcarbamoyl]-5-methoxy-6-trifluoromethyl Indoline]	0.5 to 5.5	211 to 212
COc1cc2c(cc1C(F)(F)F)N(C(=O)Nc1cc(F)cc(-c3cccnc3)c1)CC2 [Example 8, 1-[3-Fluoro-5-(3-pyridyl)phenylcarbamoyl]-5-methoxy-6-trifluoromethyl Indoline]	0.5 to 5.5	–
COc1cc2c(cc1C(F)(F)F)N(C(=O)Nc1cc(F)cc(-c3cnccc3C)c1)CC2 [Example 21, 1-(3-Fluoro5-(4-methyl-3-pyridyl)phenylcarbamoyl)-5-methoxy-6-trifluoromethylindoline]	0.5 to 5.5	191 to 195
CSc1cc2c(cc1C(F)(F)F)N(C(=O)Nc1ccc(C)c(-c3cccnc3)c1)CC2 [Example 24, 1-(4-Methyl-3-(pyrid-3-yl)phenylcarbamoyl)-5-thiomethyl-6-trifluoromethyl Indoline]	0.5 to 5.5	221 to 223
CSc1cc2c(cc1C(F)(F)F)N(C(=O)Nc1cc(F)cc(-c3cccnc3)c1)CC2 [Example 25, 1-(3-Fluoro-5-(pyrid-3-yl)phenylcarbamoyl)5-thiomethyl-6-trifluoromethyl-indoline Hydrochloride]	0.5 to 5.5	–
COc1cc2c(cc1C(F)(F)F)N(C(=O)Nc1ccc(Cl)c(-c3cccnc3)c1)CC2 [Example 26, 1-(4-Chloro-3-(pyrid-3-yl)phenylcarbamoyl)-5-methoxy-6-trifluoromethylindoline]	0.5 to 5.5	210 to 213
COc1ccc(NC(=O)N2CCc3cc(OC)c(C(F)(F)F)cc32)cc1-c1cccnc1 [Example 31, 1-[4-Methoxy-3(pyrid-3-yl)phenylcarbamoyl]-5-methoxy-6-trifluoromethylindoline]	0.5 to 5.5	–
COc1cc2c(cc1C(F)(F)F)N(C(=O)Nc1cccc(-c3cncnc3)c1)CC2 [Example 40, 1-[3-(5-Pyrimidyl)phenylcarbamoyl]-5-methoxy-6-trifluoromethyl-indoline]	0.5 to 5.5	–
CCc1cc(NC(=O)N2CCc3cc(OC)c(C(F)(F)F)cc32)cc(-c2cccnc2)c1 [Example 42, 1-[5-Ethyl-3-(pyrid-3-yl)phenylcarbamoyl]-5-methoxy-6-trifluoromethylindoline]	0.5 to 5.5	205 to 207
CSc1cc2c(cc1C(F)(F)F)N(C(=O)Nc1ccc(Oc3cccnc3)nc1)CC2 [Example 52]	0.5 to 5.5	193 to 194
COc1cc2c(cc1C(F)(F)F)N(C(=O)Nc1ccc(Oc3cccnc3)nc1)CC2 [Example 53, 5-Methoxy-6-trifluoromethyl-1-[6(pyridin-3-yloxy)pyridin-3-ylcarbamoyl]indoline]	0.5 to 5.5	202 to 204
COc1cc2c(cc1C(F)(F)F)N(C(=O)Nc1ccc(OCc3ccncc3)cc1)CC2 [Example 54, 5-Methoxy-6-trifluoromethyl-1-[4-(pyridin-4-ylmethyloxy)phenyl Carbamoyl]indoline]	0.5 to 5.5	205 to 207
COc1cc2c(cc1C(F)(F)F)N(C(=O)Nc1ccc(OCc3ccncc3)nc1)CC2 [Example 55, 5-Methoxy-6-trifluoromethyl-1-[6-(pyridin-4-ylmethyloxy)pyridin-3-ylcarbamoyl]indoline]	0.5 to 5.5	187 to 189
COc1cc2c(cc1C(F)(F)F)N(C(=O)Nc1ccc(F)c(-c3cccnc3)c1)CC2 [Example 77, 1-[4-Fluoro-3-(3-pyridyl)phenylcarbamoyl]-5-methoxy-6-trifluoromethyl Indoline]	0.5 to 5.5	210 to 212

Compound	ED50 [1] [mg/kg]	melting point [°C]
COc1cc2c(cc1C(F)(F)F)N(C(=O)Nc1cc(F)cc(-c3cncnc3)c1)CC2 [Example 78, 1-[3-Fluoro-5-(pyrimidin-5-yl)phenylcarbamoyl]-5-methoxy-6-trifluoromethyl Indoline]	0.5 to 5.5	–
COc1cc2c(cc1C(F)(F)F)N(C(=O)Nc1ccc(Cl)c(-c3cnccc3C)c1)CC2 [Example 79, 1-(4-Chloro-3-(4-methyl-3-pyridyl)phenylcarbamoyl]-5-methoxy-6-trifluoromethylindoline]	0.5 to 5.5	–
COc1cc2c(cc1C(F)(F)F)N(C(=O)Nc1cc3c(c(-c4cccnc4)c1)OCC3)CC2 [Example 80, 1-[2,3-Dihydro-7-(pyrid-3-yl)benzofuran-5-ylcarbamoyl]-5-methoxy-6-trifluoromethyl Indoline]	0.5 to 5.5	–
COc1cc2c(cc1C(F)(F)F)N(C(=O)Nc1ccc(Oc3cccnc3C)nc1)CC2 [Example 81, 5-Methoxy-6-trifluoromethyl-1-[6-(2-methylpyridin-3-yloxy)pyridin-3-ylcarbamoyl]indoline]	0.5 to 5.5	227 to 230
COc1cc2c(cc1C(F)(F)F)N(C(=O)Nc1ccc(Oc3ccccc3C(F)(F)F)nc1)CC2 [Example 164]	–	237 to 238
COc1cc2c(cc1C(F)(F)F)N(C(=O)Nc1ccc(Oc3cccc(C(F)(F)F)c3)nc1)CC2 [Example 165]	–	193 to 194
COc1cc2c(cc1C(F)(F)F)N(C(=O)Nc1ccc(Oc3ccc(C)nc3C)nc1)CC2 [Example 166]	–	230 to 233
Cc1ncccc1Oc1ccc(NC(=O)N2CCc3cc(Cl)c(Cl)cc32)cn1 [Example 168]	–	225 to 228
O=C(Nc1ccc(F)c(-c2cncnc2)c1)N1CCc2cc(Cl)c(Cl)cc21 [Example 169]	–	132 to 135
O=C(Nc1cc(F)cc(-c2cncnc2)c1)N1CCc2cc(Cl)c(Cl)cc21 [Example 170]	–	260
Cc1cc2c(cc1Cl)N(C(=O)Nc1ccc(F)c(-c3cncnc3)c1)CC2 [Example 171]	–	211 to 213
O=C(Nc1cc(F)cc(-c2cncnc2)c1)N1CCc2cc(Br)c(C(F)(F)F)cc21 [Example 172]	–	214 to 218
O=C(Nc1ccc(F)c(-c2cccnc2)c1)N1CCc2cc(Br)c(C(F)(F)F)cc21 [Example 174]	–	200 to 201
COc1cc2c(cc1C(F)(F)F)N(C(=O)Nc1ccc(Oc3cccc(C#N)c3)nc1)CC2 [Example 175]	–	136 to 138
COc1cc2c(cc1C(F)(F)F)N(C(=O)Nc1ccc(Oc3ccc(C#N)cc3)nc1)CC2 [Example 176]	–	188 to 189

— US6638953B2, “Indole derivatives as 5-HT receptor antagonist” (SmithKline Beecham p.l.c., priority 1995, dated 2003)
